Results published in patent US20190046446A1, “APO-E MODIFIED LIPID NANOPARTICLES FOR DRUG DELIVERY TO TARGETED TISSUES AND THERAPEUTIC METHODS” (Eriochem USA, LLC, priority 2016, published 2019).
Several values for one entry are separate records, joined by “and”; a condition that tells them apart may be missing. Identical values can stand only once. Like-named read-outs stand apart in the source and are kept apart here.

Key:
[1] = tested on: PC3 (prostate cancer epithelial cells); assay: In vitro cytotoxicity assay (MTS), PC3; type: cell-based, human
Experimental: 50 μL of the cell suspensions were seeded in 96-well plates in duplicate with Dulbecco's basal medium plus 10% fetal bovine serum supplemented with 10% fetal bovine serum (FBS) for PC-3, and with DMEM/Ham's F12 medium containing 10% FBS, 1% 1-glutamine for A549 cell line. Both were maintained in culture for 24 hours. The cells were then treated with serial diluted concentrations of DCX starting from 100 nM and incubated for 48 hours. At the end of incubation, 20 μL/well of MTS/PMs solution (2 mL of MTS with 100 μL of PMS solution) were added. Then, plates were incubated at 37° C., 5% CO2 for 4 hours.
Absorbance values obtained from the in vitro cytotoxicity assay of DCX, Nano+DCX, and Nano+DCX+ApoE3 samples were plotted based on the DCX concentration employed, using OriginPro 8 software (ORIGINLAB Corporation, USA). The IC50 (nM) of each of the samples was determined at 50% of the maximum absorbance value obtained, corresponding to the value obtained for the growth control.

human plasma proteins = conditions: cited from earlier work
New Zealand rabbits [2] = assay: Blood counts (hemogram) in rabbits; conditions: iv, 3 cycles every 7 days;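 further: compound given into the marginal ear vein under ketamine-xylazine-acepromazine anesthesia, blood drawn from the ear central artery after sedation, seven samplings from one day before to day 20 after first dose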
Experimental: The intravenous administration was performed in the marginal ear vein and previously rabbits underwent anesthesia intramuscular injection by a combination of Ketamine-Xylazine-Acepromazine (2.4 mg/kg acepromazine, 48 mg/kg Ketamine and 5 mg/kg xylazine)
Blood samples were taken from the central artery of the ear, after sedation. A total of 7 samples were taken for each rabbit, and samples were taken a day before the first doses (−1), and on days 1, 6, 8, 13, 15 and 20 after the first dose.

New Zealand rabbits [3] = assay: Hepatic toxicity (GGT and GOT determination); type: in vivo; conditions: iv, DCX 2.5 mg/kg or equivalent, 24 hours after inoculation
Experimental: The experiment was carried out using New Zealand rabbits kept in facilities under controlled environmental conditions (temperature of 22° C.+3° C.; 12-hour light/dark cycle) and with free access to food and water. Acclimatization was performed for a minimum of 10 days prior to the start of the experiment. Each animal weighted approximately 2.8 kg and was distributed into a group of 5 animals each.
Formulations were administered intravenously (in marginal ear vein) into rabbits that had previously been intravenously injected with a combination of Ketamine-Xylazine-Acepromazine. Amounts of Gamma glutamil transaminase (GGT) and glutamic-oxaloacetic transaminase (GOT) were determined in plasma of the rabbits 24 hours after inoculation with the formulation. The results of each sample were statistically analyzed with ANOVA and Duncan Test using SPSS 11.0.

[4] = tested on: A549 (lung cancer epithelial cells); assay: In vitro cytotoxicity assay (MTS), A549; type: cell-based, human
Experimental: 50 μL of the cell suspensions were seeded in 96-well plates in duplicate with Dulbecco's basal medium plus 10% fetal bovine serum supplemented with 10% fetal bovine serum (FBS) for PC-3, and with DMEM/Ham's F12 medium containing 10% FBS, 1% 1-glutamine for A549 cell line. Both were maintained in culture for 24 hours. The cells were then treated with serial diluted concentrations of DCX starting from 100 nM and incubated for 48 hours. At the end of incubation, 20 μL/well of MTS/PMs solution (2 mL of MTS with 100 μL of PMS solution) were added. Then, plates were incubated at 37° C., 5% CO2 for 4 hours. […] The result allowed for conditions for evaluating the growth inhibition of the Nano+DCX and Nano+DCX+ApoE3 to be defined.
Absorbance values obtained from the in vitro cytotoxicity assay of DCX, Nano+DCX, and Nano+DCX+ApoE3 samples were plotted based on the DCX concentration employed, using OriginPro 8 software (ORIGINLAB Corporation, USA). The IC50 (nM) of each of the samples was determined at 50% of the maximum absorbance value obtained, corresponding to the value obtained for the growth control. The anti-proliferation effect shown on different cells with DCX, Nano+DCX, and Nano+DCX+ApoE3 decreased cell proliferation.

## CC(=O)O[C@@]12CO[C@@H]1C[C@H](O)[C@@]1(C)C(=O)[C@H](O)C3=C(C)[C@@H](OC(=O)[C@H](O)[C@@H](NC(=O)OC(C)(C)C)c4ccccc4)C[C@@](O)([C@@H](OC(=O)c4ccccc4)[C@H]21)C3(C)C [TAXOTERE, Docetaxel]
[1]; Homo sapiens, Epithelial cell, 48 h, Normal Serum, 48 hours, read-out: IC50 in PC3, individual tests
  IC50: 0.0035 µM
[1]; Homo sapiens, Epithelial cell, LP-FREE SERUM, Table 18, read-out: IC50 PC3
  IC50: 0.03 µM
[1]; Homo sapiens, Epithelial cell, NORMAL SERUM, Table 18, read-out: IC50 PC3
  IC50: 0.004 µM
[1]; Homo sapiens, Epithelial cell, Normal Serum, average of tests, read-out: IC50 in PC3
  IC50: 0.0035 ± 0.0001 µM
[1]; Homo sapiens, Epithelial cell, Serum Free of Lipoprotein, average of tests, read-out: IC50 in PC3
  IC50: 0.0302 ± 0.0063 µM
[1]; Homo sapiens, Epithelial cell, prostate cancer cell cultures, without lipoproteins, read-out: IC50
  IC50: 0.03 µM
[1]; LP-FREE SERUM, SI=IC50 (Vero)/IC50 (PC3)
  Si PC3: 4
[1]; Normal Serum, 48 hours, listed as DCX, read-out: IC50 in PC3, individual tests
  IC50: 0.0039 µM and 0.0033 µM and 0.0034 µM
[1]; Serum Free of Lipoprotein, 48 hours, listed as DCX, read-out: IC50 in PC3, individual tests
  IC50: 0.0375 µM and 0.0345 µM and 0.039 µM and 0.01 µM
[1]; prostate cancer cell cultures
  times more toxic in the presence of lipoproteins: 7.5 times
Human plasma proteins; at 1.24 μM (1 μg/ml) plasma serum
  free Docetaxel (fu): 0.082 µM
Human plasma proteins; ultrafiltration at 37° C. and pH 7.4
  bound to plasma proteins: > 98%
rabbits; rabbit, in vivo, 3.2 mg/kg
  signs after day 12: anorexia and adipsia
rabbits; rabbits, 3.2 mg/kg Docetaxel
  dead animals after the first cycle of inoculation: dead animals were found
  dead animals after the second cycle of inoculation: dead animals were found
rabbits; rabbits, 3.2 mg/kg Docetaxel (4 ml/kg), three cycles
  mortality / lethality: 80%
New Zealand rabbits [2]; Sample 1 (day -1)
  Hematocrit: 40%
  MCH: 20 pg
  MCHC: 28 g/dL
  MCV: 71 fL
  Red Cells: 5.7 × 10^6/mm^3
  White Blood Cells: 6720 /mm
New Zealand rabbits [2]; Sample 2 (day 1)
  Hematocrit: 37%
  MCH: 20 pg
  MCHC: 28 g/dL
  MCV: 71 fL
  Red Cells: 5.2 × 10^6/mm^3
  White Blood Cells: 6175 /mm
New Zealand rabbits [2]; Sample 3 (day 6)
  Hematocrit: 37%
  MCH: 20 pg
  MCHC: 28 g/dL
  MCV: 70 fL
  Red Cells: 5.2 × 10^6/mm^3
  White Blood Cells: 3800 /mm
New Zealand rabbits [2]; Sample 4 (day 8)
  Hematocrit: 39%
  MCH: 19 pg
  MCHC: 25 g/dL
  MCV: 69 fL
  Red Cells: 5.6 × 10^6/mm^3
  White Blood Cells: 3500 /mm
New Zealand rabbits [2]; Sample 5 (day 13)
  Hematocrit: 24%
  MCH: 19 pg
  MCHC: 28 g/dL
  MCV: 69 fL
  Red Cells: 3.9 × 10^6/mm^3
  White Blood Cells: 4000 /mm
New Zealand rabbits [2]; Sample 6 (day 15)
  Hematocrit: 31%
  MCH: 20 pg
  MCHC: 29 g/dL
  MCV: 70 fL
  Red Cells: 4.4 × 10^6/mm^3
  White Blood Cells: 5500 /mm
New Zealand rabbits [2]; Sample 7 (day 20)
  Hematocrit: 19%
  MCH: 20 pg
  MCHC: 44 g/dL
  MCV: 45 fL
  Red Cells: 4.2 × 10^6/mm^3
  White Blood Cells: 2900 /mm
New Zealand rabbits [3]
  GGT concentration in plasma: No significant differences
  GOT concentration in plasma: O significant differences
[4]; Homo sapiens, A549, 48 h, Normal Serum, 48 hours, read-out: IC50 in A549, individual tests
  IC50: 0.00875 µM
[4]; Homo sapiens, A549, 48 h, Serum Free of Lipoprotein, 48 hours, read-out: IC50 in A549, individual tests
  IC50: 0.0255 µM
[4]; Homo sapiens, A549, LP-FREE SERUM, Table 18, read-out: IC50 A549
  IC50: 0.034 µM
[4]; Homo sapiens, A549, NORMAL SERUM, Table 18, read-out: IC50 A549
  IC50: 0.009 µM
[4]; Homo sapiens, A549, Normal Serum, average of tests, read-out: IC50 in A549
  IC50: 0.0087 ± 0.0007 µM
[4]; Homo sapiens, A549, Serum Free of Lipoprotein, average of tests, read-out: IC50 in A549
  IC50: 0.0338 ± 0.0032 µM
[4]; Homo sapiens, A549, lung cancer cell cultures, without lipoproteins, read-out: IC50
  IC50: 0.034 µM
[4]; LP-FREE SERUM, SI=IC50 (Vero)/IC50 (A549)
  Si A549: 4
[4]; NORMAL SERUM, SI=IC50 (Vero)/IC50 (A549), listed as DCX
  SI A549: 16
[4]; Normal Serum, 48 hours, listed as DCX, read-out: IC50 in A549, individual tests
  IC50: 0.00665 µM and 0.0096 µM and 0.0099 µM
[4]; Serum Free of Lipoprotein, 48 hours, listed as DCX, read-out: IC50 in A549, individual tests
  IC50: 0.033 µM and 0.0375 µM and 0.0455 µM and 0.0365 µM and 0.025 µM
[4]; lung cancer cell cultures
  times more toxic in the presence of lipoproteins: 3.8 times
